Results on twelve molecules are retold here after PubChem BioAssay (NCI).

What all share (assay): DTP human tumour cell line panel, 48 h
Assay [1] deals with ACHN renal.
For assay [2], the system named is CCRF-CEM leukemia.
The test system of assay [3] is COLO 205 colon.
Assay [4] has as its system DU-145 prostate.
Assay [5] deals with HCC-2998 colon.
The subject of assay [6] is HCT-116 colon.
Assay [7] has as its system HOP-62 NSCLC.
The test system of assay [8] is HT29 colon.
In assay [9] the test system is IGROV1 ovarian.
Assay [10] has as its system NCI/ADR-RES ovarian.
Assay [11] concerns OVCAR-5 ovarian.
The test system of assay [12] is SF-268 CNS.
The test system of assay [13] is SF-539 CNS.
The test system of assay [14] is SK-MEL-28 melanoma.
Assay [15] relates to SN12C renal.
For assay [16], the system named is U251 CNS.
Assay [17] has as its system UO-31 renal.
Assay [18] deals with EKVX NSCLC.
Assay [19] has as its system HOP-92 NSCLC.

Each structure is given as a SMILES string.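 96-well plates; 48 h exposure; 5 concentrations. Endpoints by linear interpolation between flanking doses. Not reached: highest tested concentration assigned. TGI marks complete inhibition of growth.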

The TGI is the concentration at which net growth stops. Consider `CC(C)c1cccc(C(=O)NCCN(C)C)c1[N+](=O)[O-]`, for which the TGI in assay [1], in [2], in [3], in [4], in assay [5] and in [6] was more than 100 µM each time. The TGI in [7], in [8], in assay [9], in assay [10], in [11] and in assay [12] was more than 100 µM each time. In addition, the concentration for total growth inhibition (TGI) in [13], in assay [14], in assay [15], in assay [16] and in [17] was more than 100 µM each time.

As to `CCCC(=O)OCC1OC(n2cc(F)c(=O)[nH]c2=O)C(F)C1OC(=O)CCC` (stereo not drawn), the TGI in [1], in assay [2], in [3], in assay [4], in [18] and in assay [6] was more than 100 µM throughout. Also, the TGI in assay [7], in [19], in assay [8], in assay [9], in assay [10] and in assay [11] was more than 100 µM in each case. Further, the concentration for total growth inhibition (TGI) in assay [12] is more than 100 µM; in [13], 27.5 µM; in [14], more than 100 µM; in [15], more than 100 µM; in assay [16] it was more than 100 µM; in assay [17], more than 100 µM.

`O=C1CCCCC(=O)Nc2ccccc2N1`: the total growth inhibition concentration (TGI) in assay [1], in [2], in [3], in assay [4], in [18] and in [6] was more than 100 µM in each case. Also, the TGI in [7], in assay [19], in [8], in assay [9], in assay [10] and in assay [11] was more than 100 µM in each case. Further, the concentration for total growth inhibition (TGI) in [12], in assay [13], in assay [14], in assay [15], in assay [16] and in [17] was more than 100 µM each time.

For `CC(=O)N/N=C1/CC[C@@]2(C)C(=CC[C@H]3C4CCC(C(C)CCCC(C)C)[C@@]4(C)CCC32)C1(C)C` (stereo partly drawn), the TGI in assay [1], in [2], in [3], in assay [4], in [18] and in assay [6] was more than 100 µM throughout. In addition, the TGI in assay [7], in [19], in assay [8], in assay [9], in assay [10] and in [11] was more than 100 µM in each case. The TGI in assay [12], in assay [14], in assay [15], in assay [16] and in [17] was more than 100 µM throughout.

Regarding `CN(NC(=O)/C(=C\c1ccco1)NC(=O)c1ccccc1)c1cn[nH]c(=O)c1Cl`, the TGI is more than 100 µM in assay [1]; 62.4 µM in assay [2]; more than 100 µM in assay [3]; more than 100 µM in assay [4]; more than 100 µM in assay [18]; more than 100 µM in [6]. For the same molecule, the TGI in assay [7], in assay [19], in [8], in [9], in assay [10] and in assay [11] was more than 100 µM in each case. In addition, the TGI is more than 100 µM in assay [12]; 62 µM in assay [13]; more than 100 µM in assay [14]; more than 100 µM in assay [15]; more than 100 µM in assay [16]; more than 100 µM in [17].

`S=C1N=C(Cl)/C(=C\c2ccco2)N1`: the TGI in [1], in assay [2], in assay [3], in [4], in assay [18] and in assay [6] was more than 100 µM throughout. Also, the total growth inhibition concentration (TGI) in [7], in [19], in assay [8], in assay [9], in assay [10] and in assay [11] was more than 100 µM throughout. Also, the TGI in [12], in [13], in assay [14], in assay [15], in assay [16] and in assay [17] was more than 100 µM each time.

With `CN(C)CCc1ccnc2nc(-c3ccc4ccccc4c3)cn12`, the TGI in [1] was more than 100 µM; in assay [2], more than 100 µM; in [3] it was more than 100 µM; in assay [4], more than 100 µM; in assay [18] it was more than 100 µM; in assay [5], 37.2 µM. For the same molecule, the TGI in assay [6] is more than 100 µM; in [7], more than 100 µM; in assay [8], 38.9 µM; in assay [9], 81.8 µM; in [10], 85.3 µM; in assay [11], more than 100 µM. The total growth inhibition concentration (TGI) in [12] was 77.5 µM; in [14], more than 100 µM; in assay [15] it was 75.9 µM; in assay [16] it was more than 100 µM; in assay [17], more than 100 µM.

For the molecule `CC(C)(CC#N)c1cc(CC(C)(C)c2cc(CC(C)(C)c3cc(C(C)(C)C4(C)OCCO4)no3)no2)no1`, the TGI in assay [1], in [2], in assay [3], in assay [4], in [18] and in [5] was more than 100 µM each time. In addition, the total growth inhibition concentration (TGI) in assay [6], in [7], in [8], in assay [9], in assay [10] and in [11] was more than 100 µM throughout. In addition, the total growth inhibition concentration (TGI) in assay [12], in [14], in [15], in assay [16] and in [17] was more than 100 µM in each case.

As for `CC(=O)c1sc(Nc2ccc(Cl)c(Cl)c2)nc1C`, the TGI in assay [1], in [3], in [4], in [18], in assay [5] and in assay [6] was more than 100 µM each time. In addition, the concentration for total growth inhibition (TGI) in assay [7], in [8], in assay [9], in assay [10], in [11] and in assay [12] was more than 100 µM throughout. Further, the TGI in assay [13], in [14], in assay [15], in assay [16] and in assay [17] was more than 100 µM each time.

With `CCOC(=O)C1=COC(C)(c2ccccc2)CC1=O` (stereo not drawn), the total growth inhibition concentration (TGI) in [1], in assay [3], in [4], in assay [18], in [5] and in assay [6] was more than 100 µM in each case. Further, the TGI in assay [7], in [8], in assay [10], in [11], in [12] and in assay [13] was more than 100 µM throughout. For the same molecule, the total growth inhibition concentration (TGI) in [14], in [15], in assay [16] and in [17] was more than 100 µM throughout.

Turning to `O=C(NCCNCCNC(=O)C(F)(F)F)C(F)(F)F`, the TGI in [1], in assay [2], in assay [3], in [4], in assay [18] and in [5] was more than 100 µM in each case. Moreover, the TGI in assay [6], in assay [7], in [8], in [9], in [10] and in assay [11] was more than 100 µM each time. Moreover, the concentration for total growth inhibition (TGI) in [12], in assay [14], in assay [15], in assay [16] and in [17] was more than 100 µM each time.

On to `CCCC(=O)Oc1ccc2c(C)cc(=O)oc2c1OC(=O)CCC`, for which the TGI in [1], in assay [2], in assay [3], in assay [4], in assay [18] and in assay [6] was more than 100 µM throughout. For the same molecule, the TGI in assay [7] is more than 100 µM; in assay [19], 99.6 µM; in assay [8] it was more than 100 µM; in assay [9] it was more than 100 µM; in assay [10], more than 100 µM; in assay [11], more than 100 µM. For the same molecule, the concentration for total growth inhibition (TGI) in assay [12], in assay [13], in [14], in [15], in [16] and in assay [17] was more than 100 µM throughout.
